According to US7179806B2, “Δ1-pyrrolines used as pesticides” (Bayer Cropscience AG, priority 2000, dated 2007):

Assay: log P determination by HPLC (reversed-phase C18, EEC Directive 79/831 Annex V.A8)
Format: physicochemical
Conditions: reversed-phase C18 HPLC column, pH 2.3, pH 2.3, 0.1% aqueous phosphoric acid/acetonitrile gradient, 43° C
From the text: Mobile phases for determination in the acidic range: 0.1% aqueous phosphoric acid, acetonitrile; linear gradient from 10% acetonitrile to 90% acetonitrile.
With `Fc1cccc(F)c1C1=NC(c2ccc(-c3cnc(Cc4ccccc4)nc3)cc2)CC1` (stereo not shown) [Example 91] the chromatographic logP was 2.79.
`Fc1cccc(F)c1C1=NC(c2ccc(-c3cnc(SCSC(F)(F)F)nc3)cc2)CC1` (stereo not shown) [Example 92] showed a chromatographic logP of 4.
`FC(F)Sc1ncc(-c2ccc(C3CCC(c4ccccc4Cl)=N3)cc2)cn1` (stereo not shown) [Example 93] showed a chromatographic logP of 3.38.
Work on `Fc1cccc(F)c1C1=N[C@@H](c2ccc(-c3ccc(C(F)(F)F)cn3)cc2)CC1` [Example 94] yielded a chromatographic logP of 3.28.
Work on `Fc1cccc(F)c1C1=NC(c2ccc(-c3cnc(OC(C(F)(F)F)C(F)(F)F)nc3)cc2)CC1` (stereo not shown) [Example 95] yielded a chromatographic logP of 3.85.
For `CN1CCN(c2ccc(-c3ccc(C4CCC(c5c(F)cccc5F)=N4)cc3)cn2)CC1` (stereo not shown) [Example 96], the chromatographic logP was 1.04.
`CC1CC(C)CN(c2ccc(-c3ccc(C4CCC(c5c(F)cccc5F)=N4)cc3)cn2)C1` (stereo not shown) [Example 97] showed a chromatographic logP of 2.1.
Work on `CCCCCCN(C)c1ncc(-c2ccc(C3CCC(c4c(F)cccc4F)=N3)cc2)cn1` (stereo not shown) [Example 99] yielded a chromatographic logP of 4.94.
Compound `CCCOc1ncc(-c2ccc(C3CCC(c4c(F)cccc4F)=N3)cc2)cn1` (stereo not shown) [Example 100] has a chromatographic logP of 2.72.
For `CCN1CCN(c2ncc(-c3ccc(C4CCC(c5c(F)cccc5F)=N4)cc3)cn2)CC1` (stereo not shown) [Example 101], the chromatographic logP was 1.24.
In the case of `CCOc1ncc(-c2ccc(C3CCC(c4c(F)cccc4F)=N3)cc2)cn1` (stereo not shown) [Example 102], the chromatographic logP is reported as 2.21.
Compound `CCC1CC(CC)CN(c2ncc(-c3ccc(C4CCC(c5c(F)cccc5F)=N4)cc3)cn2)C1` (stereo not shown) [Example 103] has a chromatographic logP of 5.82.
`CC1CN(c2ncc(-c3ccc(C4CCC(c5c(F)cccc5F)=N4)cc3)cn2)CC(C)O1` (stereo not shown) [Example 104] showed a chromatographic logP of 3.
For `Fc1cccc(F)c1C1=NC(c2ccc(-c3cnc(N4CCCCCC4)nc3)cc2)CC1` (stereo not shown) [Example 105], the chromatographic logP was 3.41.
Compound `O=C1CCCCCN1c1ccc(-c2ccc(C3CCC(c4c(F)cccc4F)=N3)cc2)cn1` (stereo not shown) [Example 106] has a chromatographic logP of 2.25.
`COCCN(CCOC)c1ncc(-c2ccc(C3CCC(c4c(F)cccc4F)=N3)cc2)cn1` (stereo not shown) [Example 107] showed a chromatographic logP of 2.48.
`C=CCN(CC=C)c1ncc(-c2ccc(C3CCC(c4c(F)cccc4F)=N3)cc2)cn1` (stereo not shown) [Example 108] showed a chromatographic logP of 3.74.
Compound `Fc1cccc(F)c1C1=NC(c2ccc(-c3ccc(N4CCCCCC4)nc3)cc2)CC1` (stereo not shown) [Example 109] has a chromatographic logP of 1.65.
For `Fc1cccc(F)c1C1=NC(c2ccc(-c3ccc(Br)cn3)cc2)CC1` (stereo not shown) [Example 110], the chromatographic logP was 3.07.
Compound `Fc1cccc(F)c1C1=NC(c2ccc(-c3ccc(N4CCCCC4)nc3)cc2)CC1` (stereo not shown) [Example 111] has a chromatographic logP of 1.49.
Compound `CCCC(C)N1CCN(c2ncc(-c3ccc(C4CCC(c5c(F)cccc5F)=N4)cc3)cn2)CC1` (stereo not shown) [Example 112] has a chromatographic logP of 1.65.
Work on `CCC(C)N1CCN(c2ccc(-c3ccc(C4CCC(c5c(F)cccc5F)=N4)cc3)cn2)CC1` (stereo not shown) [Example 113] yielded a chromatographic logP of 1.3.
With `Fc1cccc(F)c1C1=NC(c2ccc(-c3ccc(-n4ccnc4)nc3)cc2)CC1` (stereo not shown) [Example 114] the chromatographic logP was 1.28.
Compound `Cc1ccc(N2CCN(c3ncc(-c4ccc(C5CCC(c6c(F)cccc6F)=N5)cc4)cn3)CC2)cc1C` (stereo not shown) [Example 116] has a chromatographic logP of 3.88.
Work on `Fc1cccc(F)c1C1=NC(c2ccc(-c3cnc(N4CCN(c5ncccn5)CC4)nc3)cc2)CC1` (stereo not shown) [Example 117] yielded a chromatographic logP of 2.7.
With `Fc1cccc(F)c1C1=NC(c2ccc(-c3cnc(-n4cncn4)nc3)cc2)CC1` (stereo not shown) [Example 118] the chromatographic logP was 1.55.
Work on `CC(C)(C)C1CCN(c2ncc(-c3ccc(C4CCC(c5c(F)cccc5F)=N4)cc3)cn2)CC1` (stereo not shown) [Example 119] yielded a chromatographic logP of 5.47.
`CC1(C)CCN(c2ncc(-c3ccc(C4CCC(c5c(F)cccc5F)=N4)cc3)cn2)CC1` (stereo not shown) [Example 120] gave a chromatographic logP of 4.38.
In the case of `CCC1CCN(c2ncc(-c3ccc(C4CCC(c5c(F)cccc5F)=N4)cc3)cn2)CC1` (stereo not shown) [Example 121], the chromatographic logP is reported as 4.58.
Work on `Fc1cccc(F)c1C1=NC(c2ccc(-c3cnc(N4CCC(C(F)(F)F)CC4)nc3)cc2)CC1` (stereo not shown) [Example 122] yielded a chromatographic logP of 3.84.
Work on `Fc1cccc(F)c1C1=NC(c2ccc(-c3cnc(N4CCN(CC5CCCCC5)CC4)nc3)cc2)CC1` (stereo not shown) [Example 123] yielded a chromatographic logP of 2.12.
For `Fc1cccc(F)c1C1=NC(c2ccc(-c3cnc(-n4ccnc4)nc3)cc2)CC1` (stereo not shown) [Example 124], the chromatographic logP was 1.25.
`CCOCCN1CCN(c2ncc(-c3ccc(C4CCC(c5c(F)cccc5F)=N4)cc3)cn2)CC1` (stereo not shown) [Example 125] gave a chromatographic logP of 1.47.
In the case of `COCCCN1CCN(c2ncc(-c3ccc(C4CCC(c5c(F)cccc5F)=N4)cc3)cn2)CC1` (stereo not shown) [Example 126], the chromatographic logP is reported as 1.38.
For `Fc1cccc(F)c1C1=NC(c2ccc(-c3ccc(OC(F)F)nc3)cc2)CC1` (stereo not shown) [Example 127], the chromatographic logP was 3.13.
`Fc1cccc(F)c1C1=NC(c2ccc(-c3ccc(N4CCN(CC5CCCCC5)CC4)nc3)cc2)CC1` (stereo not shown) [Example 128] gave a chromatographic logP of 6.7.
`N#Cc1ccc(N2CCN(c3ccc(-c4ccc(C5CCC(c6c(F)cccc6F)=N5)cc4)cn3)CC2)cc1` (stereo not shown) [Example 129] gave a chromatographic logP of 2.29.
`Fc1cccc(F)c1C1=NC(c2ccc(-c3cnc(-n4cccn4)nc3)cc2)CC1` (stereo not shown) [Example 130] gave a chromatographic logP of 1.98.
Work on `N#CCCN1CCN(c2ncc(-c3ccc(C4CCC(c5c(F)cccc5F)=N4)cc3)cn2)CC1` (stereo not shown) [Example 131] yielded a chromatographic logP of 1.69.
With `CN(C)CCN1CCN(c2ncc(-c3ccc(C4CCC(c5c(F)cccc5F)=N4)cc3)cn2)CC1` (stereo not shown) [Example 132] the chromatographic logP was 3.
For `N#Cc1ccccc1N1CCN(c2ccc(-c3ccc(C4CCC(c5c(F)cccc5F)=N4)cc3)cn2)CC1` (stereo not shown) [Example 133], the chromatographic logP was 2.3.
`Cc1cccc(N2CCN(c3ncc(-c4ccc(C5CCC(c6c(F)cccc6F)=N5)cc4)cn3)CC2)c1C` (stereo not shown) [Example 134] showed a chromatographic logP of 5.78.
With `CCC(CC)N1CCN(c2ncc(-c3ccc(C4CCC(c5c(F)cccc5F)=N4)cc3)cn2)CC1` (stereo not shown) [Example 135] the chromatographic logP was 2.13.
Work on `Fc1cccc(F)c1C1=NC(c2ccc(-c3cnc(N4CCN(c5cccc(Cl)c5)CC4)nc3)cc2)CC1` (stereo not shown) [Example 136] yielded a chromatographic logP of 4.83.
In the case of `C[C@@H]1CN(c2ncc(-c3ccc(C4CCC(c5c(F)cccc5F)=N4)cc3)cn2)C[C@H](C)O1` (stereo partly shown) [Example 137], the chromatographic logP is reported as 3.03.
`CCC(CC)N1CCN(c2ccc(-c3ccc(C4CCC(c5c(F)cccc5F)=N4)cc3)cn2)CC1` (stereo not shown) [Example 138] gave a chromatographic logP of 1.39.
In the case of `CC(C)(C)c1ccc(CN2CCN(c3ncc(-c4ccc(C5CCC(c6c(F)cccc6F)=N5)cc4)cn3)CC2)cc1` (stereo not shown) [Example 139], the chromatographic logP is reported as 3.3.
Work on `Fc1cccc(F)c1C1=NC(c2ccc(-c3cnc(N4CCSCC4)nc3)cc2)CC1` (stereo not shown) [Example 140] yielded a chromatographic logP of 3.13.
For `Cc1ccc(CN2CCN(c3ncc(-c4ccc(C5CCC(c6c(F)cccc6F)=N5)cc4)cn3)CC2)cc1` (stereo not shown) [Example 141], the chromatographic logP was 2.28.
Work on `COc1ccc(CN2CCN(c3ncc(-c4ccc(C5CCC(c6c(F)cccc6F)=N5)cc4)cn3)CC2)cc1` (stereo not shown) [Example 142] yielded a chromatographic logP of 2.22.
In the case of `Fc1cccc(F)c1C1=NC(c2ccc(-c3cnc(N4CCN(Cc5ccc(Cl)cc5)CC4)nc3)cc2)CC1` (stereo not shown) [Example 143], the chromatographic logP is reported as 2.25.
Compound `Fc1cccc(F)c1C1=NC(c2ccc(-c3cnc(N4CCN(Cc5ccc(C(F)(F)F)cc5)CC4)nc3)cc2)CC1` (stereo not shown) [Example 144] has a chromatographic logP of 4.7.
`Fc1ccc(CN2CCN(c3ncc(-c4ccc(C5CCC(c6c(F)cccc6F)=N5)cc4)cn3)CC2)cc1` (stereo not shown) [Example 145] showed a chromatographic logP of 1.78.
In the case of `N#Cc1ccccc1N1CCN(c2ncc(-c3ccc(C4CCC(c5c(F)cccc5F)=N4)cc3)cn2)CC1` (stereo not shown) [Example 146], the chromatographic logP is reported as 3.78.
`CN1CCN(c2ncc(-c3ccc(C4CCC(c5c(F)cccc5F)=N4)cc3)cn2)CC1` (stereo not shown) [Example 147] showed a chromatographic logP of 1.48.
With `COCCN1CCN(c2ncc(-c3ccc(C4CCC(c5c(F)cccc5F)=N4)cc3)cn2)CC1` (stereo not shown) [Example 148] the chromatographic logP was 1.49.
Work on `Fc1ccc(N2CCN(c3ncc(-c4ccc(C5CCC(c6c(F)cccc6F)=N5)cc4)cn3)CC2)cc1` (stereo not shown) [Example 149] yielded a chromatographic logP of 3.95.
Work on `N#Cc1cccnc1N1CCN(c2ncc(-c3ccc(C4CCC(c5c(F)cccc5F)=N4)cc3)cn2)CC1` (stereo not shown) [Example 150] yielded a chromatographic logP of 3.28.
With `Fc1cccc(F)c1C1=NC(c2ccc(-c3cnc(N4CCN(Cc5ccccc5)CC4)nc3)cc2)CC1` (stereo not shown) [Example 152] the chromatographic logP was 1.92.
Work on `CCCCCCNc1ncc(-c2ccc(C3CCC(c4c(F)cccc4F)=N3)cc2)cn1` (stereo not shown) [Example 153] yielded a chromatographic logP of 3.1.
Compound `CCCCCNc1ncc(-c2ccc(C3CCC(c4c(F)cccc4F)=N3)cc2)cn1` (stereo not shown) [Example 154] has a chromatographic logP of 2.9.
`CCCCCN1CCN(c2ncc(-c3ccc(C4CCC(c5c(F)cccc5F)=N4)cc3)cn2)CC1` (stereo not shown) [Example 155] gave a chromatographic logP of 2.02.
With `Cc1cccc(N2CCN(c3ccc(-c4ccc(C5CCC(c6c(F)cccc6F)=N5)cc4)cn3)CC2)c1C` (stereo not shown) [Example 157] the chromatographic logP was 3.63.
Work on `CCC(C)N1CCN(c2ncc(-c3ccc(C4CCC(c5c(F)cccc5F)=N4)cc3)cn2)CC1` (stereo not shown) [Example 158] yielded a chromatographic logP of 1.65.
In the case of `Fc1cccc(F)c1C1=NC(c2ccc(-c3cnc(N4CCN(c5ccccn5)CC4)nc3)cc2)CC1` (stereo not shown) [Example 159], the chromatographic logP is reported as 2.06.
Work on `Fc1cccc(F)c1C1=NC(c2ccc(-c3cnc(NC4CC4)nc3)cc2)CC1` (stereo not shown) [Example 160] yielded a chromatographic logP of 1.65.
With `Fc1cccc(F)c1C1=NC(c2ccc(-c3cnc(NC4CCCC4)nc3)cc2)CC1` (stereo not shown) [Example 161] the chromatographic logP was 2.58.
Work on `Fc1cccc(F)c1C1=NC(c2ccc(-c3cnc(NC4CCCCC4)nc3)cc2)CC1` (stereo not shown) [Example 162] yielded a chromatographic logP of 3.
In the case of `CCCN(CC)c1ncc(-c2ccc([C@H]3CCC(c4c(F)cccc4F)=N3)cc2)cn1` [Example 163], the chromatographic logP is reported as 3.58.
Work on `Fc1cccc(F)c1C1=N[C@@H](c2ccc(-c3ccc(N4CCOCC4)nc3)cc2)CC1` [Example 164] yielded a chromatographic logP of 1.27.
`Fc1cccc(F)c1C1=NC(c2ccc(-c3ccc(N4CCN(c5cccc(Cl)c5)CC4)nc3)cc2)CC1` (stereo not shown) [Example 165] showed a chromatographic logP of 3.17.
In the case of `Fc1cccc(F)c1C1=NC(c2ccc(-c3cnc(-n4cccc4)nc3)cc2)CC1` (stereo not shown) [Example 166], the chromatographic logP is reported as 3.58.
With `O=C1CCCCCN1c1ncc(-c2ccc(C3CCC(c4c(F)cccc4F)=N3)cc2)cn1` (stereo not shown) [Example 167] the chromatographic logP was 1.89.
